# How the values were obtained:
# [1] = target: T1, full-length HPV E6 binding to human Caspase 8 (Human papillomavirus type 16, UniProt P03126); settings: SAR analogs
# T1 construct: made in house; host or cells: E. coli
# Protocol: Three structurally diverse libraries (Prestwick library, Microsource Spectrum library and an in-house collection at Kansas University; see Table 1) were screened for the ability of compounds to inhibit the binding of full-length HPV E6 to human Caspase 8 using a previously optimized AlphaScreen™ protocol.
# The compounds were diluted to a working concentration in DMSO and screened at a single-point final concentration of 10 μM with no replicates. Briefly, 75 nL of each compound was transferred and added to wells of the destination 384-well plate using the Echo dispenser to 4 μL of blocking solution. 4 μL of 800 nM GST-E6 and 4 μL of His6-Caspase 8 were added and pre-incubated at room temperature for 60 minutes. 8 μL of the donor and acceptor bead mixture (final concentration of 20 μg/ml) was then added. The plates were sealed and incubated for 4 hours at room temperature before the plates were read using the Envision™ Multi-Label plate reader (Perkin Elmer Inc.). […] A 10-point serial dilution of these compounds was done for dose-dependency reconfirmation. Dose response inhibition curves were constructed and IC50 calculated using GraphPad Prism using four parameter non-linear regression analysis.
# The first counter-screen assay was based using the GST-His6 fusion peptide as the E6-binding partner instead of GST-E6-His6-Caspase 8. Hit candidate compounds from the primary screen were prepared using a 6-point serial dilution. Using an Echo dispenser, compounds were transferred to plates containing 4 μL of blocking buffer. 8 μL of 5 nM GST-His6 peptide substrate was then added. The mixture was pre-incubated at room temperature for 60 minutes. Glutathione donor and nickel chelate acceptor beads (final concentration 20 μg/mL) were added and incubated for another 60 minutes at room temperature. Dose-dependency of the compounds using GST-E6-His6-Caspase 8 was performed in parallel using the same protocol as in the primary screen. The signals were then read using the Envision™ plate reader.
# Using the SciFinder and Zinc15 databases, several gambogic acid structural analogs were identified and selected. The 8 analogs were obtained as follow: gambogenic amide (Enzo Life Sciences), gambogenic acid (Selleckchem), morellic acid (Aobious), 30-hydroxy gambogic acid (Quality Phytochemicals, LLC), acetyl gambogic acid (Microsource), and gambogin, neogambogic acid and isomorellinol (MolPort Natural Products). Additional gambogic acid was purchased from Tocris. The interactions of the analogues with E6-caspase 8 was tested using AlphaScreen™ technology using the same protocol as with the primary screen, and were compared to the parent compound. The effect on cell viability was also similarly done in HPV^+ and HPV^− cell lines via the MTT assay (see below) and potency was determined using GraphPad IC50 curve fitting.
# [2] = tested on: HPV+ (SCC47, SCC090, SCC104, SCC152) and HPV- (SCC19, SCC29, SCC49, SCC84) HNSCC cell lines; test: MTT cell viability, HNSCC panel; format: cell-based
# Protocol: While SAR studies using the SCC104 cell line provided evidence of the activity of the analogs, further studies were conducted to assess not just the potency, but also the selectivity. As a step towards that goal, the efficacy of GA-OH was evaluated in a panel containing both HPV^+ and HPV^− HNSCC cell lines using MTT cell viability assays. Four HPV^+ cell lines (SCC47, SCC090, SCC104, SCC152) and four HPV^− cell lines (SCC19, SCC29, SCC49, SCC84) were utilized. GA-OH behaved dose dependently in cell lines both with or without HPV. […] FIGS. 7A-7C are graphical representations of the sensitivity of HPV^+ cell lines and HPV^− cell lines to GA-OH-mediated growth inhibition. FIG. 7A is a graphical representation of the cell growth inhibition of HNSCC HPV^+ and HPV^− cell lines by GA-OH (+ and closed shapes represent HPV^+ cell lines and − and open shapes the HPV^− cell lines). […] These cells were good controls, as HPV is an established causative agent in CC carcinogenesis. Two HPV^+ cell lines, SiHa and CaSki were selected as the positive controls and the Saos-2 cell line was used as an HPV-negative control. […] FIG. 7B is a graphical representation of the cell growth inhibition of cervical cancer HPV^+ and HPV^− cell lines by GA-OH. HPV^+ cell lines display higher sensitivity than do HPV^− cell lines as shown by the leftwards shift of the HPV^+ curves (SCC47, 90, 104, 152 in FIG. 7A and SiHa and CaSki in FIG. 7B).
# All working concentrations were diluted in PBS to the desired concentration before use. To test the effect of gambogic acid and/or its derivatives on cell viability, all cell lines were seeded at 2×10^4 per well in 96-well plates and allowed to adhere overnight. Various concentrations of the analogues were added and the cells incubated at 37° C. for 24 hr. Viability was then measured using the MTT assay, performed as described previously. […] Cell viability and potency were assessed from % inhibition relative to the vehicle control, and IC50 dose curves were generated using GraphPad Prism.
# T1 sequence (P03126 whole entry): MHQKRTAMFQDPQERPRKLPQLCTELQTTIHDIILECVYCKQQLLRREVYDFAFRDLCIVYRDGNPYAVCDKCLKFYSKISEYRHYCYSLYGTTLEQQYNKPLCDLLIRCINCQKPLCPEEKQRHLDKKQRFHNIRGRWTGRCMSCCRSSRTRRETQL
substance,measurement,setting,value
30-hydroxygambogic acid [GA-OH],inhibition of E6-caspase 8 binding relative to GA,[1],more effectively inhibited E6 binding to caspase 8 than any of the other analogs or the parent compound
same,potency and selectivity for HPV+ versus HPV- cells,[2],more potent and selective
same,"cell growth inhibition, sensitivity of HPV+ versus HPV- cell lines",[2]; MTT,displayed higher sensitivity
